Results as given in article PMC3328449, “Inhibition of Diacylglycerol–Sensitive TRPC Channels by Synthetic and Natural Steroids” (PLoS ONE, 2012).

Key:
hTRPC3 = molecular target: T1, hTRPC3 (Homo sapiens, UniProt Q13507); experiment: Whole-cell patch clamp, AlF4- evoked TRPC3 currents; format: cell-based; details: 10 µM, AlF4- infusion
T1 construct: expressed in transfected cells
T1 sequence (Q13507 1-848 isoform Q13507-3): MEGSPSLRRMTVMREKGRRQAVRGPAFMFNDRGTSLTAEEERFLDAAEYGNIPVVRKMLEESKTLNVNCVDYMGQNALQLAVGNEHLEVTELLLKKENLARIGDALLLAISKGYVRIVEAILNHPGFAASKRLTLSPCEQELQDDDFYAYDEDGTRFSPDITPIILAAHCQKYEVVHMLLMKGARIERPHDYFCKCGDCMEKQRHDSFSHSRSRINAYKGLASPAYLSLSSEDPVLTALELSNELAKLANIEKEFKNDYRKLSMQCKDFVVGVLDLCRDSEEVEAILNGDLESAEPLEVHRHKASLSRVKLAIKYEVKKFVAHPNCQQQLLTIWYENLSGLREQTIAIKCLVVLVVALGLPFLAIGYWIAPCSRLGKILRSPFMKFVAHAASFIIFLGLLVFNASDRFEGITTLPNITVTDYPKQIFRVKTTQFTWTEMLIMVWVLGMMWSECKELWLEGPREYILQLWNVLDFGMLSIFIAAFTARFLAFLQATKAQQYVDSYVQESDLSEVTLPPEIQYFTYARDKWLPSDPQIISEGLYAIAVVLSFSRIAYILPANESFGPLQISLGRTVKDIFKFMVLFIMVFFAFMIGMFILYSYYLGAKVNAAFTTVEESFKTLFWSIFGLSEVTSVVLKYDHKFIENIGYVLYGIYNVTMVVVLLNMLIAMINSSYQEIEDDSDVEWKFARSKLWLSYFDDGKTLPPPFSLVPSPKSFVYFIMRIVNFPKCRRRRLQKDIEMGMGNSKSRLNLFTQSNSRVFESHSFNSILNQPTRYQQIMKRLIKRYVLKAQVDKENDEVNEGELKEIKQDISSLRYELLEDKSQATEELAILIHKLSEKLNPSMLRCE
Text: hTRPC3 (GenBank accession number NM_003305) was stably expressed in chinese hamster ovary (CHO) cells using a proprietary high expression vector (Steinbeis –Transferzentrum für Angewandte Biologische Chemie, Mannheim, Germany).
The whole-cell patch clamp technique was employed to measure ion currents from single cells. Heat-polished patch pipettes with resistances of 2–4 MΩ were pulled from borosilicate glass capillaries (Hilgenberg, Malsfeld, Germany) using a DMZ-Universal puller (Zeitz-Instruments, Munich, Germany) and filled with standard intracellular solution containing: 120 mM CsOH, 120 mM gluconic acid, 2 mM MgCl2, 3 mM CaCl2, 5 mM Cs4-BAPTA, 10 mM HEPES (pH 7.4 adjusted with gluconic acid). For agonist-independent stimulation of TRPC currents the intracellular solution was supplemented with 30 µM AlCl3 and 10 mM NaF and cells were infused with AlF4 ^− through the patch pipette. […]
(§1) Cells grown on poly-L-lysine-coated coverslips were continuously superfused with extracellular solution and substances were applied using an ALA BPS-8 perfusion system (ALA Scientific Instruments, Westbury, USA). […] Cells were held at −70 mV, and current-voltage (I–V) relationships were routinely measured every 2 or 3 s by applying voltage ramps (180 ms) from −100 mV to +80 mV. […]

[1] = Solubility in perfusate (remark); format: physicochemical; details: aortic ring experiments; higher concentrations could not be tested
mTRPC4ß = molecular target: T2, mTRPC4ß (Mus musculus, UniProt Q9QUQ5); experiment: Whole-cell patch clamp, TRPC4 currents; format: cell-based; details: 10 µM; not separable from current run-down
T2 construct: expressed in transfected cells
T2 sequence (Q9QUQ5 1-890 isoform Q9QUQ5-2): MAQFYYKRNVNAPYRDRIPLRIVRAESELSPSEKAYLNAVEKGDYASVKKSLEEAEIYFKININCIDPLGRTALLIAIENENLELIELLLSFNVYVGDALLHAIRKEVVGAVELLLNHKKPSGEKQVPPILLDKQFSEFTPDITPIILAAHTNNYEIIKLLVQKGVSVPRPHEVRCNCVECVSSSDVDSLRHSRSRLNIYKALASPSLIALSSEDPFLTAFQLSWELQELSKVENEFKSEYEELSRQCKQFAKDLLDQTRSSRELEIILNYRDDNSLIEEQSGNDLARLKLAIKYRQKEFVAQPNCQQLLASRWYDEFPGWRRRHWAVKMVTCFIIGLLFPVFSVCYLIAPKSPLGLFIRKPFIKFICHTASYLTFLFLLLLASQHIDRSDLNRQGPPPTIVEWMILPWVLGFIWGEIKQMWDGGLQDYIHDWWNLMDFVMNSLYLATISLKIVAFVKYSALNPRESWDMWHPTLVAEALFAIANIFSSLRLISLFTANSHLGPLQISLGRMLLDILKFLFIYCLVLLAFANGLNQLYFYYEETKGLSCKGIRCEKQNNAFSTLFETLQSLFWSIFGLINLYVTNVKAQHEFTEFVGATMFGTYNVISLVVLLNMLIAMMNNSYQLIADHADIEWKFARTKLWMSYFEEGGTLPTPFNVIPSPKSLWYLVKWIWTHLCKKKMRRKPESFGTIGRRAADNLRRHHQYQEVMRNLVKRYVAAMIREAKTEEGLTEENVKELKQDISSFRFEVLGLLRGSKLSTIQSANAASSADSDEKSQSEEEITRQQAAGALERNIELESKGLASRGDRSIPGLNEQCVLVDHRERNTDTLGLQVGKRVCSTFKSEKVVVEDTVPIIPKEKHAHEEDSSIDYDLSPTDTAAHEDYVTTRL
Procedure: Cells were grown at 37°C in a humidified atmosphere (5% or 7% CO2) under standard cell culture conditions. Stable human embryonic kidney (HEK) cell lines expressing recombinant mTRPC4ß (GenBank accession number AAC05178); mTRPC5 (GenBank accession number NM_009428) or hTRPC6 (GenBank accession number AF080394) under the control of a tetracycline-inducible promoter were generated using the Flp-In T-Rex (FITR) system (Invitrogen, Karlsruhe, Germany). TRPC4/5/6 HEK-FITR cells were maintained in Dulbecco's modified eagle medium (DMEM, with glutaMAX I, 4.5 g/l glucose and […] sodium pyruvate) supplemented with 10% (v/v) fetal bovine serum (Biochrom, Berlin, Germany), 1 mM glutamine, 1 mM MEM sodium pyruvate, 40 µg/ml hygromycin (50 µg/ml for mTRPC5 HEK-FITR cells), and 15 µg/ml blasticidine HCl. Channel expression was induced by supplementing the growth medium for 18–24 h with 1 µg/ml doxycycline.
The whole-cell patch clamp technique was employed to measure ion currents from single cells. […]
as §1

C#C[C@]1(OC(C)=O)CC[C@H]2[C@@H]3CCC4=CC(=NO)CC[C@@H]4[C@H]3CC[C@@]21CC (mixture of isomers) [norgestimate]
Inhibition of TRPC3 currents (hTRPC3): almost completely inhibited
Solubility [1]: limited solubility
Effect on TRPC4 currents (mTRPC4ß): apparently small, irreversible
